# Reference: US20110009350A1, “Oil-in-Water Formulation of Avermectins” (priority 2005, published 2011)
# What was measured:
# [1] = Stability of Abamectin in water exposed to light (5000-6000 lux) at 25° C., HPLC; format: physicochemical
# Experimental: The stability of Abamectin in water exposed to light at various pH-values was determined. 194.4 mg of Abamectin was dissolved in 10 ml methanol and 1 ml of the solution transferred to 100 ml of demineralised water and a part of this transferred to a buffer solution. The solution was exposed to light (5000-6000 lux) at 25° C. and analysed using a HPLC.
# [2] = Stability of Abamectin in water at various pH-values and temperatures, kept in the dark, HPLC; format: physicochemical
# Experimental: The stability of Abamectin in water at various pH-values and temperatures was determined. 194.4 mg of Abamectin was dissolved in 10 ml methanol and 1 ml of the solution transferred to 100 ml of de-mineralised water and a part of this was transferred to a buffer solution. The sample was kept in the dark and the solution analysed using a HPLC.
substance,measurement,setting,value
Abamectin,Abamectin concentration (ppm),"[1]; 7 days, pH 4.0",2.923 ppm
same,Abamectin concentration (ppm),"[1]; 7 days, pH 7.0",2.941 ppm
same,Abamectin concentration (ppm),"[1]; 7 days, pH 9.0",3.163 ppm
same,Abamectin concentration (ppm),"[1]; 14 days, pH 4.0",2.332 ppm
same,Abamectin concentration (ppm),"[1]; 14 days, pH 7.0",2.529 ppm
same,Abamectin concentration (ppm),"[1]; 14 days, pH 9.0",2.810 ppm
same,Abamectin concentration (ppm),"[1]; 21 days, pH 4.0",1.961 ppm
same,Abamectin concentration (ppm),"[1]; 21 days, pH 7.0",2.223 ppm
same,Abamectin concentration (ppm),"[1]; 21 days, pH 9.0",2.360 ppm
same,Abamectin concentration (ppm),"[1]; 28 days, pH 4.0",1.666 ppm
same,Abamectin concentration (ppm),"[1]; 28 days, pH 7.0",2.034 ppm
same,Abamectin concentration (ppm),"[1]; 28 days, pH 9.0",2.173 ppm
same,Abamectin concentration (ppm),"[1]; Initial, pH 4.0",3.495 ppm
same,Abamectin concentration (ppm),"[1]; Initial, pH 7.0",3.327 ppm
same,Abamectin concentration (ppm),"[1]; Initial, pH 9.0",3.555 ppm
same,Abamectin concentration (ppm),"[2]; 25° C., 7 days, pH 4.0, dark",3.130 ppm
same,Abamectin concentration (ppm),"[2]; 25° C., 7 days, pH 7.0, dark",3.188 ppm
same,Abamectin concentration (ppm),"[2]; 25° C., 7 days, pH 9.0, dark",3.005 ppm
same,Abamectin concentration (ppm),"[2]; 25° C., 14 days, pH 4.0, dark",2.782 ppm
same,Abamectin concentration (ppm),"[2]; 25° C., 14 days, pH 7.0, dark",3.040 ppm
same,Abamectin concentration (ppm),"[2]; 25° C., 14 days, pH 9.0, dark",2.596 ppm
same,Abamectin concentration (ppm),"[2]; 25° C., 21 days, pH 4.0, dark",2.566 ppm
same,Abamectin concentration (ppm),"[2]; 25° C., 21 days, pH 7.0, dark",2.829 ppm
same,Abamectin concentration (ppm),"[2]; 25° C., 21 days, pH 9.0, dark",2.380 ppm
same,Abamectin concentration (ppm),"[2]; 25° C., 28 days, pH 4.0, dark",2.524 ppm
same,Abamectin concentration (ppm),"[2]; 25° C., 28 days, pH 7.0, dark",2.676 ppm
same,Abamectin concentration (ppm),"[2]; 25° C., 28 days, pH 9.0, dark",2.287 ppm
same,Abamectin concentration (ppm),"[2]; 25° C., Initial, pH 4.0, dark",3.495 ppm
same,Abamectin concentration (ppm),"[2]; 25° C., Initial, pH 7.0, dark",3.327 ppm
same,Abamectin concentration (ppm),"[2]; 25° C., Initial, pH 9.0, dark",3.555 ppm
same,Abamectin concentration (ppm),"[2]; 50° C., 7 days, pH 4.0, dark",1.054 ppm
same,Abamectin concentration (ppm),"[2]; 50° C., 7 days, pH 7.0, dark",2.952 ppm
same,Abamectin concentration (ppm),"[2]; 50° C., 7 days, pH 9.0, dark",1.265 ppm
same,Abamectin concentration (ppm),"[2]; 50° C., 14 days, pH 4.0, dark",0.383 ppm
same,Abamectin concentration (ppm),"[2]; 50° C., 14 days, pH 7.0, dark",2.780 ppm
same,Abamectin concentration (ppm),"[2]; 50° C., 14 days, pH 9.0, dark",0.519 ppm
same,Abamectin concentration (ppm),"[2]; 50° C., 21 days, pH 4.0, dark",0.123 ppm
same,Abamectin concentration (ppm),"[2]; 50° C., 21 days, pH 7.0, dark",2.194 ppm
same,Abamectin concentration (ppm),"[2]; 50° C., 21 days, pH 9.0, dark",0.205 ppm
same,Abamectin concentration (ppm),"[2]; 50° C., 28 days, pH 4.0, dark",0.0609 ppm
same,Abamectin concentration (ppm),"[2]; 50° C., 28 days, pH 7.0, dark",1.949 ppm
same,Abamectin concentration (ppm),"[2]; 50° C., 28 days, pH 9.0, dark",0.0628 ppm
same,Abamectin concentration (ppm),"[2]; 50° C., Initial, pH 4.0, dark",3.495 ppm
same,Abamectin concentration (ppm),"[2]; 50° C., Initial, pH 7.0, dark",3.327 ppm
same,Abamectin concentration (ppm),"[2]; 50° C., Initial, pH 9.0, dark",3.555 ppm
